Measurements: US7045343B2, “Sterilization indicator test packs” (3M Innovative Properties Company, priority 1998, dated 2006)

Test system: Bacillus stearothermophilus spores
Assay: Spore outgrowth (color change) of indicators after prevacuum steam sterilization
Format: cell-based
Conditions: 4-pulse prevacuum steam 121° C.
Method in brief: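 Self-contained indicators held coated spore strips, a polypropylene microfiber barrier and a crushable inner container. That container held peptone, L-alanine, 4-methylumbelliferyl-alpha-D-glucoside and bromocresol purple at pH 7.6. Indicators sat in metal trays in a Getinge sterilizer running pulses of 0.075–0.085 bar vacuum and steam to 1.00 bar at 121° C. Incubation at 60° C followed, and yellow color at 168 hours scored spore outgrowth.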

[1] = Example 4, 50 mg/ml coating, 7–18 min

Decaglyceryl Decaoleate was tested, and the “NO. GROWTH POSITIVE 168 HR” value [1] was 31 and the “NO. GROWTH POSITIVE 168 HR” value (Example 4, 100 mg/ml coating, 7–18 min) was 30.
Decaglyceryl Monostearate was tested, and the “NO. GROWTH POSITIVE 168 HR” value (Example 1, 10 mg/ml coating, 7–13 min) was 39, the “NO. GROWTH POSITIVE 168 HR” value (Example 1, 20 mg/ml coating, 7–13 min) was 34 and the “NO. GROWTH POSITIVE 168 HR” value (Example 1, 40 mg/ml coating, 7–13 min) was 59. The “NO. GROWTH POSITIVE 168 HR” value (Example 1, 80 mg/ml coating, 7–13 min) was 55, the “NO. GROWTH POSITIVE 168 HR” value (Example 1, 100 mg/ml coating, 7–13 min) was 34 and the “GROWTH POSITIVE 168 HR” value (Example 3, 100 mg/ml coating, 7–15 min) was 20. The “NO. GROWTH POSITIVE 168 HR” value [1] was 29.
